Measurements from patent US11596639B2, “Substituted indole Mcl-1 inhibitors” (Vanderbilt University, priority 2016, dated 2023).
Like-named read-outs stand apart in the source and are kept apart here.

What was measured:
Mcl-1 = Mcl-1 (Homo sapiens (Human), UniProt Q07820); experiment: TR-FRET binding assay, FITC-Bak peptide and MBP-tagged Mcl-1; details: read-out: Ki for Inhibition of Mcl-1 by TR-FRET assay
Procedure: Compounds are diluted in DMSO in a 16-point, semilog serial dilution scheme. […] The plate was mixed and incubated for 3 hours at room temperature. […] TR-FRET signal is plotted and IC50 and Ki values are calculated in the same manner as the fluorescence polarization anisotropy based competition assays.

[1] = system: H929 human cancer cell lines; experiment: Cellular viability / proliferation (Cell TiterGlo, 72 h); assay type: cell-based
Outline: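 Compounds were added as 2-fold serial dilutions from 50 μM (final DMSO <1%) to H929 cells seeded 1,000 per well in 10% FBS medium one day earlier.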

[2] = Homo sapiens, NCI-H929, 72 h, read-out: GI50 on cellular proliferation of H929 human cancer cell lines, H929 cells, 72 h, Cell TiterGlo, 10% FBS
[3] = H929 cells, 72 h, Cell TiterGlo, 10% FBS, read-out: GI50 on cellular proliferation of H929 human cancer cell lines

Sequence of Mcl-1 (Q07820 172-327): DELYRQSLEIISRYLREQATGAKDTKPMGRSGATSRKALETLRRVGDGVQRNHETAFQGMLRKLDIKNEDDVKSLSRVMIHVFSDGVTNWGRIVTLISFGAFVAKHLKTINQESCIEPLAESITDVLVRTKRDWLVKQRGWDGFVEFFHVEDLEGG

SMILES	Ki (Mcl-1)	GI50 [1, 2]	GI50 [1, 3]
COCc1cccn2nc(-c3ccc4c(c3)c(N3C[C@@H](C)n5c(c(CCCOc6cc(C)c(Cl)c(C)c6)c6ccc(Cl)c(-c7c(C)nn(C)c7C)c65)C3=O)cn4C)nc12 [Example 695, (R)-7-Chloro-10-(3-(4-chloro-3,5-dimethylphenoxy)propyl)-2-(5-(8-(methoxymethyl)-[1,2,4]triazolo[1,5-a]pyridin-2-yl)-1-methyl-1H-indol-3-yl)-4-methyl-6-(1,3,5-trimethyl-1H-pyrazol-4-yl)-3,4-dihydropyrazino[1,2-a]indol-1(2H)-one]	0.57 nM	280 nM	
COCCOCCn1c(C(=O)O)cc2cccc(N3C[C@@H](C)n4c(c(CCCOc5cc(C)c(Cl)c(C)c5)c5ccc(Cl)c(-c6c(C)nn(C)c6C)c54)C3=O)c21 [Example 634, (R)-7-(7-chloro-10-(3-(4-chloro-3,5-dimethylphenoxy)propyl)-4-methyl-1-oxo-6-(1,3,5-trimethyl-1H-pyrazol-4-yl)-3,4-dihydropyrazino[1,2-a]indol-2(1H)-yl)-1-(2-(2-methoxyethoxy)ethyl)-1H-indole-2-carboxylic acid]	< 0.2 nM	280 nM	
Cc1cc(OCCCc2c3n(c4c(-c5c(C)nn(C)c5C)c(Cl)ccc24)[C@H](C)CN(c2cn(C)c4ccc(-n5nnnc5C)nc24)C3=O)cc(C)c1Cl [Example 679, (R)-7-Chloro-10-(3-(4-chloro-3,5-dimethylphenoxy)propyl)-4-methyl-2-(1-methyl-5-(5-methyl-JH-tetrazol-1-yl)-1H-pyrrolo[3,2-b]pyridin-3-yl)-6-(1,3,5-trimethyl-1H-pyrazol-4-yl)-3,4-dihydropyrazino[1,2-a]indol-1(2H)-one]	3.1 nM		940 nM
COc1ccc(N2C[C@@H](C)n3c(c(CCCOc4cc(C)c(Cl)c(C)c4)c4ccc(Cl)c(-c5c(C)nc(CN(C)C)nc5C)c43)C2=O)c2c1cc(C(=O)O)n2C [Example 483, (R)-7-(7-Chloro-10-(3-(4-chloro-3,5-dimethylphenoxy)propyl)-6-(2-((dimethylamino)methyl)-4,6-dimethylpyrimidin-5-yl)-4-methyl-1-oxo-3,4-dihydropyrazino[1,2-a]indol-2(1H)-yl)-4-methoxy-1-methyl-1H-indole-2-carboxylic acid]	< 0.2 nM	280 nM	
Cc1cc(OCCCc2c3n(c4c(-c5c(C)nn(C)c5C)c(Cl)ccc24)[C@H](C)CN(c2cc(OC(F)(F)F)cc4cc(C(=O)O)n(C)c24)C3=O)cc(C)c1Cl [Example 479, (R)-7-(7-chloro-10-(3-(4-chloro-3,5-dimethylphenoxy)propyl)-4-methyl-1-oxo-6-(1,3,5-trimethyl-1H-pyrazol-4-yl)-3,4-dihydropyrazino[1,2-a]indol-2(1H)-yl)-1-methyl-5-(trifluoromethoxy)-1H-indole-2-carboxylic acid]	0.95 nM	1500 nM	
Cc1cc(OCCCc2c3n(c4c(-c5c(C)nn(C)c5C)c(Cl)ccc24)[C@H](C)CN(c2cn(C)c4ccc(-c5ncn(-c6ncccn6)n5)cc24)C3=O)cc(C)c1Cl [Example 646, (R)-7-Chloro-10-(3-(4-chloro-3,5-dimethylphenoxy)propyl)-4-methyl-2-(1-methyl-5-(1-(pyrimidin-2-yl)-1H-1,2,4-triazol-3-yl)-1H-indol-3-yl)-6-(1,3,5-trimethyl-1H-pyrazol-4-yl)-3,4-dihydropyrazino[1,2-a]indol-1(2H)-one]	0.3 nM	240 nM	
COCCOCCOc1cc(N2C[C@@H](C)n3c(c(CCCOc4cc(C)c(Cl)c(C)c4)c4ccc(Cl)c(-c5c(C)nn(C)c5C)c43)C2=O)c2c(c1)cc(C(=O)O)n2C [Example 633, (R)-7-(7-chloro-10-(3-(4-chloro-3,5-dimethylphenoxy)propyl)-4-methyl-1-oxo-6-(1,3,5-trimethyl-1H-pyrazol-4-yl)-3,4-dihydropyrazino[1,2-a]indol-2(1H)-yl)-5-(2-(2-methoxyethoxy)ethoxy)-1-methyl-1H-indole-2-carboxylic acid]	< 0.2 nM		< 200 nM
